Data: BindingDB's records for doi:10.1016/j.bmcl.2004.01.021 (Atherogenics, 2004)
pIC50: −log10 of the molar value.

biological target: T1, Tumor necrosis factor receptor superfamily member 1A (Homo sapiens, UniProt P19438); experiment: ChEBML_224214
T1 sequence (P19438 whole entry): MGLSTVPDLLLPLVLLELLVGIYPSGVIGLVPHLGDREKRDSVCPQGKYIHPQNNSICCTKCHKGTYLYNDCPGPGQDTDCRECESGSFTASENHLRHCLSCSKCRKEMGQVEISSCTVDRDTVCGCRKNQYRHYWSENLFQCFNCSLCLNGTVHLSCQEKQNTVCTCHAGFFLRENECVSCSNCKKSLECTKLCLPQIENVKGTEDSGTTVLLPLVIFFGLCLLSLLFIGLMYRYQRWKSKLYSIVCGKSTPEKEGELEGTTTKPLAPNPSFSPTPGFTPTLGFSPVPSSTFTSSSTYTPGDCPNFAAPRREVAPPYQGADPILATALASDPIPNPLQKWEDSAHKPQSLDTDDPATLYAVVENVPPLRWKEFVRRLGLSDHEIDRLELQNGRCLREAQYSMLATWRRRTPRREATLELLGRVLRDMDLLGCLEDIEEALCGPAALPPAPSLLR
Excerpt: Inhibition of TNF-alpha-induced VCAM-1 expression

Compound	pIC50
COc1ccc(/C=C/C(=O)c2cc(C(C)(C)C)c(O)c(C(C)(C)C)c2)cc1 [(E)-1-(3,5-Di-tert-butyl-4-hydroxy-phenyl)-3-(4-methoxy-phenyl)-propenone]	< 4.30
COc1cc(/C=C/C(=O)c2cc(OC)c(OCc3cc(OC)c(OC)c(OC)c3)c(OC)c2)cc(OC)c1OC [(E)-1-[3,5-Dimethoxy-4-(3,4,5-trimethoxy-benzyloxy)-phenyl]-3-(3,4,5-trimethoxy-phenyl)-propenone]	5.52
COc1cc(OC)c(-c2cc3ccccc3s2)cc1/C=C/C(=O)c1ccc(OC)c(OC)c1OC [(E)-3-(5-Benzo[b]thiophen-2-yl-2,4-dimethoxy-phenyl)-1-(2,3,4-trimethoxy-phenyl)-propenone]	5.10
CCOc1ccc(/C=C/C(=O)c2cc(-c3cccs3)ccc2OC)cc1F [(E)-3-(4-Ethoxy-3-fluoro-phenyl)-1-(2-methoxy-5-thiophen-2-yl-phenyl)-propenone]	5.40
COc1ccc(C(=O)/C=C/c2ccccc2)cc1 [1-(4-methoxyphenyl)-3-phenylprop-2-en-1-one (6)]	4.85
COc1ccc(Br)cc1CCC(=O)c1cc(OC)c(OC)c(OC)c1 [3-(5-Bromo-2-methoxy-phenyl)-1-(3,4,5-trimethoxy-phenyl)-propan-1-one]	< 4.30
CCOc1cc(OCC)c(C(=O)/C=C/c2cc(Br)c(OC)c(OC)c2)cc1OCC [(E)-3-(3-Bromo-4,5-dimethoxy-phenyl)-1-(2,4,5-triethoxy-phenyl)-propenone]	4.82
COc1cc(C(=O)/C=C/c2cc(OC)c(OC)c(-c3cccs3)c2)cc(OC)c1OCC(=O)O [{4-[(E)-3-(3,4-Dimethoxy-5-thiophen-2-yl-phenyl)-acryloyl]-2,6-dimethoxy-phenoxy}-acetic acid]	6.00
COc1ccc(C(=O)/C=C/c2ccc(OC)c(OC)c2)cc1 [(E)-3-(3,4-Dimethoxy-phenyl)-1-(4-methoxy-phenyl)-propenone]	4.82
COc1ccc(-c2cc(C)cs2)cc1/C=C/C(=O)c1cc(OC)c(OC)c(OC)c1 [(E)-3-[2-Methoxy-5-(4-methyl-thiophen-2-yl)-phenyl]-1-(3,4,5-trimethoxy-phenyl)-propenone]	5.70
COc1ccc(-c2cccs2)cc1/C=C/C(=O)c1ccc(OCc2ccccn2)c(OC)c1 [(E)-1-[3-Methoxy-4-(pyridin-2-ylmethoxy)-phenyl]-3-(2-methoxy-5-thiophen-2-yl-phenyl)-propenone]	5.52
COc1cc(OC)c(-c2cc3ccccc3s2)cc1/C=C/C(=O)c1ccc(OC(C)(C)C(=O)O)cc1 [2-{4-[(E)-3-(5-Benzo[b]thiophen-2-yl-2,4-dimethoxy-phenyl)-acryloyl]-phenoxy}-2-methyl-propionic acid]	5.22
COc1cc(/C=C/C(=O)c2cc(OC)c(OCc3ccc4c(c3)OCO4)c(OC)c2)cc(OC)c1OC [(E)-1-[4-(Benzo[1,3]dioxol-5-ylmethoxy)-3,5-dimethoxy-phenyl]-3-(3,4,5-trimethoxy-phenyl)-propenone]	5.52
COc1cc(-c2cccc(C(C)=O)c2)ccc1C(=O)C=Cc1cc(OC)c(OC)c(OC)c1 [(E)-1-(3'-Acetyl-3-methoxy-biphenyl-4-yl)-3-(3,4,5-trimethoxy-phenyl)-propenone]	5.40
COc1ccc(C(=O)/C=C/c2ccc(OC)cc2OC)cc1 [3-(2,4-Dimethoxy-phenyl)-1-(4-methoxy-phenyl)-propenone]	4.54
COc1ccc(-c2cc(C(=O)/C=C/c3cc(OC)c(OC)c(OC)c3)c(OC)cc2OC)c(OC)c1 [(E)-1-(4,6,2',4'-Tetramethoxy-biphenyl-3-yl)-3-(3,4,5-trimethoxy-phenyl)-propenone]	5.52
O=C(/C=C/c1ccc(F)cc1)c1ccc(F)cc1 [(E)-1,3-Bis-(4-fluoro-phenyl)-propenone]	4.60
COc1cc(C(=O)/C=C/c2ccc(-c3cccs3)cc2)cc(OC)c1OC [(E)-3-(4-Thiophen-2-yl-phenyl)-1-(3,4,5-trimethoxy-phenyl)-propenone]	5.22
COc1cc(OC)c(CCC(=O)c2cc(OC)c(OC)c(OC)c2)cc1Br [3-(5-Bromo-2,4-dimethoxy-phenyl)-1-(3,4,5-trimethoxy-phenyl)-propan-1-one]	< 4.30
COc1ccc(C(=O)/C=C/c2cc(-c3cccs3)ccc2OC)cc1 [(E)-1-(4-Methoxy-phenyl)-3-(2-methoxy-5-thiophen-2-yl-phenyl)-propenone]	5.52
COc1cc(OC)c(C(=O)/C=C/c2cc(-c3cccs3)ccc2OC)c(OC)c1 [(E)-3-(2-Methoxy-5-thiophen-2-yl-phenyl)-1-(2,4,6-trimethoxy-phenyl)-propenone]	5.52
